Test [1] concerns 16S control construct (16Sc). In words: ESI-FTICR MS screening for noncovalent binding to the 16Sc control RNA construct. More on the design: species or system E. coli. The procedure: (§1) Samples were brought to 0.1% heptafluorobutyric acid (HFBA) by the addition of 1% HFBA. A Gilson HPLC system consisting of four 306 pumps and a Gilson 215 liquid handler was used to perform the separations. Sample injection volume was 3 mL. Separation was carried out using a 250×10 mm Phenomenex Aqua C18 column, with a 50×10 mm guard column. Components were eluted using 0.1% HFBA and a gradient of 0 to 40% Acetonitrile (ACN) at a flow rate of 3 mL/min. over 45 minutes. 1 mL fractions were collected every 20 seconds and were assayed without further preparation.
RNA constructs 16S and 16Sc (FIG. 1A) were obtained from Dharmacon Research, Boulder, Colo. The 16Sc construct contains an 18-atom hexaethylene glycol chain attached to the 5′ terminus of the oligonucleotide as supplied by the manufacturer. The addition of this chain results in a net addition of C12H24O9 P (monoisotopic mass calc 344.1236) to the 16Sc oligonucleotide sequence shown in FIG. 1. The RNA was deprotected according to the manufacturer's directions and ethanol precipitated twice from 1 M ammonium acetate. […]
The presence of both a specific (16S) and non-specific (16Sc) RNA construct enables the simultaneous determination of binding specificity between target and ligand. In the absence of ligand, the initial peak intensity ratio of 16Sc/16S was determined to be 0.3 as shown in the control spectrum shown in FIG. 1B. […]

Test [2] has as its system E. coli 16S ribosomal A-site (16S) 27-mer synthetic RNA construct. In words: ESI-FTICR MS screening for noncovalent binding to the 16S RNA construct. As to the method: as §1
RNA constructs 16S and 16Sc (FIG. 1A) were obtained from Dharmacon Research, Boulder, Colo. The 16Sc construct contains an 18-atom hexaethylene glycol chain attached to the 5′ terminus of the oligonucleotide as supplied by the manufacturer. The addition of this chain results in a net addition of C12H24O9 P (monoisotopic mass calc 344.1236) to the 16Sc oligonucleotide sequence shown in FIG. 1. The RNA was deprotected according to the manufacturer's directions and ethanol precipitated twice from 1 M ammonium acetate. Paromomycin (MW=615.2963 Da), was obtained from Sigma (St. Louis, Mo.) and ICN (Costa Mesa, Calif.).
The construct shown on the left in FIG. 1A (16S) is the 27-mer synthetic RNA containing the E. coli 16S ribosomal A-site (Purohit, P.; Stern, S. Nature 1994, 370, 659-662). Two positions in the E. coli 16S RNA are noted numerically as 1408 and 1492, referring to the location of these residues in the intact 16S rRNA. These positions have been previously shown to be critical for aminoglycoside recognition and binding (Griffey, R. H.; Hofstadler, S. A.; Sannes-Lowery, K. A.; Ecker, D. J.; Crooke, S. T. Proc. Natl. Acad. Sci. U. S. A. 1999, 96, 10129-10133; Fourmy, D.; Recht, M. I.; Blanchard, S. C.; Puglisi, J. D. Science (Washington, D.C.) 1996, 274, 1367-1371).
Mass spectrometry was performed on a modified Bruker Daltonics (Billerica, Mass.) Apex II 70e electrospray ionization Fourier transform ion cyclotron resonance mass spectrometer equipped with an actively shielded 7 tesla superconducting magnet. Experiments were performed with the source at room temperature, the skimmer potential was held at 0 volts, the capillary exit potential was −126 volts, and other experimental parameters were as described in detail elsewhere (Sannes-Lowery, K. A.; Drader, J. J.; Griffey, R. H.; Hofstadler, S. A. TrAC, Trends Anal. Chem. 2000, 19, 481-491). Binding reactions were comprised of 15 μl of a solution containing 2.5 μM 16S and 16Sc in 100 mM NH4OAc and 33% isopropyl alcohol and 2 μl of the LC fraction in a 96-well microtiter plate. […] The plates were vortexed briefly, and then incubated for 60 minutes at room temperature prior to analysis. Sample aliquots were injected directly from 96-well microtiter plates using a CTC HTS PAL autosampler (LEAP Technologies, Carrboro, N.C.).
The presence of both a specific (16S) and non-specific (16Sc) RNA construct enables the simultaneous determination of binding specificity between target and ligand. In the absence of ligand, the initial peak intensity ratio of 16Sc/16S was determined to be 0.3 as shown in the control spectrum shown in FIG. 1B. The peak intensity ration of 16Sc/16S should remain constant in the absence of ligand binding activity. If a ligand specifically binds the 16S RNA target, the peak intensity ratio of 16Sc/16S will […], while a ligand that binds non-specifically to both targets will not cause a significant change in the peak intensity ratio of 16Sc/16S. Thus, monitoring the 16Sc/16S peak intensity ratio is a convenient metric for characterizing binding specificity.

Consider `NC[C@@H]1O[C@H](O[C@H]2[C@@H](O)[C@H](O[C@@H]3[C@@H](O)[C@H](N)C[C@H](N)[C@H]3O[C@H]3O[C@H](CO)[C@@H](O)[C@H](O)[C@H]3N)O[C@@H]2CO)[C@H](N)[C@@H](O)[C@@H]1O` [paromomycin, Paromomycin], for which the “abundance of the non-specific complex of 16Sc+paromomycin (relative to 16Sc)” value in test [1] (fraction 146 (~54.7 minutes), FIG. 4) worked out at 13%. The “binding to the 16Sc RNA (result in words)” value in test [1] (fraction #131, peak would be expected at m/z 1982.11) is “does not indicate a peak corresponding to paromomycin binding to the 16Sc RNA”. The “binding specificity 16S vs 16Sc (result in words)” value in test [2] (2.5 μM 16S and 16Sc, 100 mM NH4OAc, 33% isopropyl alcohol) was “binding specifically to 16S RNA”. Besides, the “specificity for the 16S RNA target relative to the new molecule (59-fold vs. 5-fold)” value in test [2] (fraction 146) was “approximately 11 fold”. The “abundance of the specific complex of 16S+paromomycin compared to 16S” value in test [2] (fraction 146 (~54.7 minutes) of S. rimosus sp. paromomycinus broth, 5- charge state, FIG. 4) was determined as 770%. The “specificity of binding to the 16S RNA target over the 16Sc RNA construct” value in test [2] (fraction 146, ratio of complex abundances 16S vs 16Sc) is given as “approximately 59 fold”. Further, the “peak intensity ratio of 16Sc/16S RNA” value in test [2] (fraction #131 (~49.5 minutes), baseline ratio without ligand 0.3) was determined as 0.79. Also, the “number of paromomycin molecules binding to 16S and 16Sc RNA” value in test [2] (peak of the paromomycin elution (e.g. fraction 138), data not shown) was “one to four”.

The values above are taken from patent US20070264661A1, “METHOD FOR RAPID IDENTIFICATION OF MOLECULES WITH FUNCTIONAL ACTIVITY TOWARDS BIOMOLECULAR TARGETS” (Isis Pharmaceuticals, Inc., priority 2003, published 2007).
